Results on six compounds are retold here after patent US20060035813A1, “Methods and formulations comprising agonists and antagonists of nuclear hormone receptors” (priority 2002, published 2006).

Test [1] deals with tyrosine aminotransferase (TAT) in HTC cells. The class given is cell-based, rat.
Test [2] concerns the target T1, glucocorticoid receptor (GR) (Rattus norvegicus, UniProt P06536).
T1 construct: expressed in transfected cells; host or cells: Cos7
T1 sequence (P06536 1-795): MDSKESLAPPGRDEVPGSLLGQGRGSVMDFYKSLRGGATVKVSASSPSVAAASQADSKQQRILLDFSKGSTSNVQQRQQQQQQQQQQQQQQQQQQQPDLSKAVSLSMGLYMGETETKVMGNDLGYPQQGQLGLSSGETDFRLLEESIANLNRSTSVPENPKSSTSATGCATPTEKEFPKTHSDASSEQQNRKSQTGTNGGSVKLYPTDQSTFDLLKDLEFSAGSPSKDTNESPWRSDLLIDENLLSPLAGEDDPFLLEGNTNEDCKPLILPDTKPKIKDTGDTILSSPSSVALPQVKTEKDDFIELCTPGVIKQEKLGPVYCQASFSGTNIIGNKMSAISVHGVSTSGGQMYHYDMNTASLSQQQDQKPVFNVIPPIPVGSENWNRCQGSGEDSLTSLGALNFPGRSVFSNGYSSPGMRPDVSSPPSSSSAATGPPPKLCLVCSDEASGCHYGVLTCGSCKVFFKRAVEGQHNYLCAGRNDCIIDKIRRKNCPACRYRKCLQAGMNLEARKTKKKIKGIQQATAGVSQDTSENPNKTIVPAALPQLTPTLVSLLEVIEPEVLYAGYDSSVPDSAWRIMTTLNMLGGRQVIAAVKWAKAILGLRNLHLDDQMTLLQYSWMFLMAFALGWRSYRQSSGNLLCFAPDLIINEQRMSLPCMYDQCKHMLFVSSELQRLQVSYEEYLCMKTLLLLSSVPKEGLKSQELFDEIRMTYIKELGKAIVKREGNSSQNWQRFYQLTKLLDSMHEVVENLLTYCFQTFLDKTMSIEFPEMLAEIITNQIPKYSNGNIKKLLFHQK
The class given is cell-based.

In test [3] the test system is constitutive luciferase vector, pGL3 control. The class given is cell-based.
Test [4] addresses T2, progesterone receptor B (PR-B) (Homo sapiens, UniProt P06401).
T2 sequence (P06401 1-933): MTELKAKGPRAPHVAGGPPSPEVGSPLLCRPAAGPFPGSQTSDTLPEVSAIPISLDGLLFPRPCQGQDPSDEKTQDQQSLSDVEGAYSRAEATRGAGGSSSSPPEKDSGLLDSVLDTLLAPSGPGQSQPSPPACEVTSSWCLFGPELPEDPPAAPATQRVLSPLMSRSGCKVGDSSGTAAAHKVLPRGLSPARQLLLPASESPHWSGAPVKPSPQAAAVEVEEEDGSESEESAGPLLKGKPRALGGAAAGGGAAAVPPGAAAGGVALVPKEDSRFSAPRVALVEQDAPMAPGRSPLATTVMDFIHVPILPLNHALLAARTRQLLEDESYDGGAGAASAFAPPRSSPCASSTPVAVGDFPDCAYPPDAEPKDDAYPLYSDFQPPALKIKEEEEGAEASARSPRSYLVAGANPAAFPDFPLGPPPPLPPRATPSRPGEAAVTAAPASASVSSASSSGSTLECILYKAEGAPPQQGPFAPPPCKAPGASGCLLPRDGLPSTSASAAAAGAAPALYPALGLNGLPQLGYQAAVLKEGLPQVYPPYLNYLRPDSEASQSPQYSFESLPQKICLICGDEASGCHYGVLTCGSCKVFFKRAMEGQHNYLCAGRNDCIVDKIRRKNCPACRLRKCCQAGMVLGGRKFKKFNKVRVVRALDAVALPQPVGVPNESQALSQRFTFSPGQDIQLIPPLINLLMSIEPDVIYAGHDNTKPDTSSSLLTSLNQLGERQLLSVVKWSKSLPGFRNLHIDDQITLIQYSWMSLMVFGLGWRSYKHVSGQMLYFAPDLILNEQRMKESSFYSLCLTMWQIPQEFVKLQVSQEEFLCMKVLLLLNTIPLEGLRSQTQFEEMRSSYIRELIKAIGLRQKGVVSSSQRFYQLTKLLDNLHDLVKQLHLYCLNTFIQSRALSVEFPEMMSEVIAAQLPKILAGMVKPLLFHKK
The settings on record: 100 nM progesterone; 2 ng/ml LF+500 ng/ml PA; RU486 up to 1 μM; pLTR luc.

The next test concerns Raw264.7 cells. The test is classed as cell-based.
Another test concerns J774.1 cells. The test is classed as cell-based.
In test [5] the target is T1, glucocorticoid receptor (GR). The test is classed as binding.

The structures appear in SMILES notation. “Also recorded” adds a separate entry of the source.

For the compound `C[C@@H]1C[C@H]2[C@@H]3CCC4=CC(=O)C=C[C@]4(C)[C@@]3(F)[C@@H](O)C[C@]2(C)[C@@]1(O)C(=O)CO` [Dex, dexamethasone], in test [1], the “Dex concentration as low as which TAT is induced” value came out at 10 nM and the “induction of TAT activity” value is recorded as “approximately 10 fold”.
Regarding `COc1cccc(-c2cc(=O)c3ccccc3o2)c1N` [PD98059], in test [1], the “effect of MAPK inhibitor on dexamethasone-induced TAT activity” value (“effect of MAPK inhibitor” for short) is reported as “repress dexamethasone-induced TAT activity”. In test [2], the “GR/GRE-specific effect of MAPK pathway inhibitor on Dex-induced GR transactivation” value is reported as “does not affect GR transactivation; also recorded: no GRE specific effect; also recorded: did not alter GR repression; also recorded: does not have any GR specific effect” and the “effect on GRE-luciferase activity” value was “decreased luciferase activity”. In addition, the “effect on constitutive luciferase (pGL3 control)” value in test [3] is listed as “decreased luciferase activity; also recorded: non-specific suppressive effect on luciferase”.
In the case of `CC#C[C@]1(O)CC[C@H]2[C@@H]3CCC4=CC(=O)CCC4=C3[C@@H](c3ccc(N(C)C)cc3)C[C@@]21C` [RU 486, mifepristone], the “repression of progesterone-induced PR-B transactivation in the presence of LeTx” value in test [4] is “fully repress”. Besides, in test [2], the “mode of GR repression / antagonism” value is “competitive antagonist” and the “repression of Dex-induced GR transactivation in the presence of LeTx” value is listed as “fully repressed; also recorded: fully repress”. In addition, in the test with Raw264.7 cells, the “effect of pretreatment on LeTx toxicity” value is “does not prevent LeTx toxicity”. In the test on J774.1 cells, the “effect of pretreatment on LeTx toxicity” value is “does not prevent LeTx toxicity”. Further, the “competition with [3H] dexamethasone for binding to GR” value in test [5] is “can compete”.
Take `Nc1nccc(-c2c(-c3ccc(F)cc3)ncn2C2CCNCC2)n1` [SB220025]: the “effect of MAPK inhibitor” value in test [1] was “repress dexamethasone-induced TAT activity”.
Regarding `COc1ccc(C2CNC(=O)C2)cc1OC1CCCC1` (centres unmarked) [rolipram], the “effect on LeTx repression of dexamethasone-induced TAT activity” value in test [1] was “does not prevent LeTx repression”. Moreover, the “effect of rolipram on LeTx toxicity” value with Raw264.7 cells is reported as “does not prevent LeTx toxicity”.
`C[S+]([O-])c1ccc(-c2nc(-c3ccncc3)c(-c3ccc(F)cc3)[nH]2)cc1` (centres unmarked) [SB203580]: the “effect of MAPK inhibitor” value in test [1] is listed as “repress dexamethasone-induced TAT activity”. Further, in test [2], the “GR/GRE-specific effect of MAPK pathway inhibitor on Dex-induced GR transactivation” value is “has no effect on GR-mediated transactivation”.
